# From the supplement of paper PMC10307832
# Tests used:
# Assay in all cases: relative viability (nuclei count vs DMSO), 5 days (fraction); higher = more cells survive
# NCI-H1915 = test system: NCI-H1915
# In short: (§1)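 Relative viability is defined as nuclei in treated wells over nuclei in vehicle wells. Duplicate plates were run and medians reported. Lung cancer cell lines in 1536-well plates were dosed by pin tool one day after seeding, with one drug or with a fixed anchor-drug dose plus five library-drug doses (not always all listed) in √10 steps, and nuclei were counted after 5 days.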
# NCI-H3122 = test system: NCI-H3122
# In short: as §1
# ChaGo-K-1 = test system: ChaGo-K-1
# In short: as §1
# NCI-H1755 = test system: NCI-H1755
# In short: as §1
# ABC-1 = test system: ABC-1
# In short: as §1
# HCC-15 = test system: HCC-15
# In short: as §1
# EMC-BAC-2 = test system: EMC-BAC-2
# In short: as §1
# HCC-78 = test system: HCC-78
# In short: as §1
# LXF-289 = test system: LXF-289
# In short: as §1
# NCI-H322M = test system: NCI-H322M
# In short: as §1
# NCI-H2126 = test system: NCI-H2126
# In short: as §1
# NCI-H441 = test system: NCI-H441
# In short: as §1
# HOP-62 = test system: HOP-62
# In short: as §1
# NCI-H1666 = test system: NCI-H1666
# In short: as §1
# CAL-12T = test system: CAL-12T
# In short: as §1
# NCI-H2085 = test system: NCI-H2085
# In short: as §1
# NCI-H1975 = test system: NCI-H1975
# In short: as §1
# NCI-H358 = test system: NCI-H358
# In short: as §1
# EPLC-272H = test system: EPLC-272H
# In short: as §1
smiles,measurement,setting,value
O=c1cc(N2CCOCC2)oc2c(-c3cccc4c3sc3ccccc34)cccc12 + NC(=O)Nc1cc(-c2cccc(F)c2)sc1C(=O)N[C@H]1CCCNC1 [AZD7762] (partner 0.2 µM),relative viability,NCI-H1915; first compound 0.01 µM,0.763
same,relative viability,NCI-H1915; first compound 0.03162 µM,0.725
same,relative viability,NCI-H1915; first compound 0.1 µM,0.731
same,relative viability,NCI-H1915; first compound 0.3162 µM,0.658
same,relative viability,NCI-H1915; first compound 1 µM,0.675
same,relative viability,NCI-H3122; first compound 0.01 µM,1.01
same,relative viability,NCI-H3122; first compound 0.03162 µM,0.976
same,relative viability,NCI-H3122; first compound 0.1 µM,0.731
same,relative viability,NCI-H3122; first compound 0.3162 µM,0.99
same,relative viability,NCI-H3122; first compound 1 µM,0.973
same,relative viability,ChaGo-K-1; first compound 0.01 µM,0.847
same,relative viability,ChaGo-K-1; first compound 0.03162 µM,0.898
same,relative viability,ChaGo-K-1; first compound 0.1 µM,0.6
same,relative viability,ChaGo-K-1; first compound 0.3162 µM,0.831
same,relative viability,ChaGo-K-1; first compound 1 µM,0.938
same,relative viability,NCI-H1755; first compound 0.01 µM,0.473
same,relative viability,NCI-H1755; first compound 0.03162 µM,0.417
same,relative viability,NCI-H1755; first compound 0.1 µM,0.427
same,relative viability,NCI-H1755; first compound 0.3162 µM,0.434
same,relative viability,NCI-H1755; first compound 1 µM,0.487
same,relative viability,ABC-1; first compound 0.01 µM,0.819
same,relative viability,ABC-1; first compound 0.03162 µM,0.774
same,relative viability,ABC-1; first compound 0.1 µM,0.695
same,relative viability,ABC-1; first compound 0.3162 µM,0.694
same,relative viability,ABC-1; first compound 1 µM,0.848
same,relative viability,HCC-15; first compound 0.01 µM,1.23
same,relative viability,HCC-15; first compound 0.03162 µM,1.46
same,relative viability,HCC-15; first compound 0.1 µM,1.3
same,relative viability,HCC-15; first compound 0.3162 µM,1.26
same,relative viability,HCC-15; first compound 1 µM,1.54
same,relative viability,EMC-BAC-2; first compound 0.01 µM,1.09
same,relative viability,EMC-BAC-2; first compound 0.03162 µM,1.17
same,relative viability,EMC-BAC-2; first compound 0.1 µM,1.19
same,relative viability,EMC-BAC-2; first compound 0.3162 µM,1.14
same,relative viability,EMC-BAC-2; first compound 1 µM,1.11
same,relative viability,HCC-78; first compound 0.01 µM,0.629
same,relative viability,HCC-78; first compound 0.03162 µM,0.616
same,relative viability,HCC-78; first compound 0.1 µM,0.354
same,relative viability,HCC-78; first compound 0.3162 µM,0.615
same,relative viability,HCC-78; first compound 1 µM,0.5
same,relative viability,LXF-289; first compound 0.01 µM,1.11
same,relative viability,LXF-289; first compound 0.03162 µM,1.08
same,relative viability,LXF-289; first compound 0.1 µM,0.75
same,relative viability,LXF-289; first compound 0.3162 µM,1.2
same,relative viability,LXF-289; first compound 1 µM,1.21
same,relative viability,NCI-H322M; first compound 0.01 µM,0.578
same,relative viability,NCI-H322M; first compound 0.03162 µM,0.589
same,relative viability,NCI-H322M; first compound 0.3162 µM,0.595
same,relative viability,NCI-H322M; first compound 1 µM,0.581
same,relative viability,NCI-H2126; first compound 0.01 µM,0.982
same,relative viability,NCI-H2126; first compound 0.03162 µM,0.97
same,relative viability,NCI-H2126; first compound 0.1 µM,1.12
same,relative viability,NCI-H2126; first compound 0.3162 µM,0.981
same,relative viability,NCI-H2126; first compound 1 µM,1.02
same,relative viability,NCI-H441; first compound 0.01 µM,1.06
same,relative viability,NCI-H441; first compound 0.03162 µM,1.03
same,relative viability,NCI-H441; first compound 0.1 µM,1.09
same,relative viability,NCI-H441; first compound 0.3162 µM,1.2
same,relative viability,NCI-H441; first compound 1 µM,1.01
same,relative viability,HOP-62; first compound 0.01 µM,0.514
same,relative viability,HOP-62; first compound 0.03162 µM,0.574
same,relative viability,HOP-62; first compound 0.1 µM,0.188
same,relative viability,HOP-62; first compound 0.3162 µM,0.745
same,relative viability,HOP-62; first compound 1 µM,0.689
same,relative viability,NCI-H1666; first compound 0.01 µM,0.842
same,relative viability,NCI-H1666; first compound 0.03162 µM,0.886
same,relative viability,NCI-H1666; first compound 0.1 µM,0.797
same,relative viability,NCI-H1666; first compound 0.3162 µM,0.675
same,relative viability,NCI-H1666; first compound 1 µM,0.7
same,relative viability,CAL-12T; first compound 0.01 µM,0.58
same,relative viability,CAL-12T; first compound 0.03162 µM,0.541
same,relative viability,CAL-12T; first compound 0.1 µM,0.852
same,relative viability,CAL-12T; first compound 0.3162 µM,0.676
same,relative viability,CAL-12T; first compound 1 µM,0.498
same,relative viability,NCI-H2085; first compound 0.01 µM,1
same,relative viability,NCI-H2085; first compound 0.03162 µM,1.02
same,relative viability,NCI-H2085; first compound 0.1 µM,0.887
same,relative viability,NCI-H2085; first compound 0.3162 µM,1.05
same,relative viability,NCI-H2085; first compound 1 µM,1.01
same,relative viability,NCI-H1975; first compound 0.01 µM,0.676
same,relative viability,NCI-H1975; first compound 0.03162 µM,0.735
same,relative viability,NCI-H1975; first compound 0.1 µM,0.554
same,relative viability,NCI-H1975; first compound 0.3162 µM,0.808
same,relative viability,NCI-H1975; first compound 1 µM,0.553
same,relative viability,NCI-H358; first compound 0.01 µM,0.49
same,relative viability,NCI-H358; first compound 0.03162 µM,0.517
same,relative viability,NCI-H358; first compound 0.1 µM,0.354
same,relative viability,NCI-H358; first compound 0.3162 µM,0.445
same,relative viability,NCI-H358; first compound 1 µM,0.519
same,relative viability,EPLC-272H; first compound 0.01 µM,0.244
same,relative viability,EPLC-272H; first compound 0.03162 µM,0.282
same,relative viability,EPLC-272H; first compound 0.1 µM,0.12
same,relative viability,EPLC-272H; first compound 0.3162 µM,0.31
same,relative viability,EPLC-272H; first compound 1 µM,0.211
